Assays:
HepG2 [1] = assay: drug sensitivity score (DSS) for viability; higher = more toxic; extreme values may be limits of the assay; conditions: 72 h
Vero E6 [2] = assay: as above; conditions: 72 h
Calu-3 [3] = assay: as above; conditions: 72 h
U2OS [4] = assay: as above; conditions: 72 h
Caco-2 [5] = assay: as above; conditions: 72 h
[6] = test system: A549-ACE2 infected with SARS-CoV-2; assay: SARS-CoV-2 infection rate relative to DMSO; higher = more infection; conditions: 24 h
HepG2 [7] = assay: cell viability relative to DMSO; higher = less toxic; conditions: 72 h
Vero E6 [8] = assay: as above; conditions: 72 h
Calu-3 [9] = assay: as above; conditions: 72 h
U2OS [10] = assay: as above; conditions: 72 h
Caco-2 [11] = assay: as above; conditions: 72 h
[12] = test system: A549-ACE2 infected with SARS-CoV-2; assay: morphology score (similarity to uninfected cells); higher = more like uninfected cells; conditions: 24 h
HepG2 [13] = assay: relative viability EC50 (midpoint between 100% and the lowest measured viability); higher = less toxic; conditions: 72 h
Vero E6 [14] = assay: as above; conditions: 72 h
Calu-3 [15] = assay: as above; conditions: 72 h
U2OS [16] = assay: as above; conditions: 72 h
Caco-2 [17] = assay: as above; conditions: 72 h
[18] = test system: A549-ACE2 infected with SARS-CoV-2; assay: cell count relative to DMSO; higher = less toxic; conditions: 24 h
A549-ACE2 [19] = assay: drug-induced phospholipidosis relative to tamoxifen; higher = more phospholipidosis
A549-ACE2 [20] = assay: phospholipidosis EC50; higher = less potent phospholipidosis inducer

CN1CCCCC1Cn1cc(C(=O)c2cc([N+](=O)[O-])ccc2I)c2ccccc21 (stereo unspecified) [AM-1241]
Conditions	drug sensitivity score	relative viability EC50 [µM]
Caco-2 [5]	0	–
Caco-2 [17]	–	> 10
Calu-3 [3]	0	–
Calu-3 [15]	–	> 10
HepG2 [1]	0	–
HepG2 [13]	–	> 10
U2OS [4]	0	–
U2OS [16]	–	> 10
Vero E6 [2]	0	–
Vero E6 [14]	–	> 10

Conditions	SARS-CoV-2 infection rate, [6] [%]	cell count, [18] [%]	cell viability, Caco-2 [11] [%]	cell viability, Calu-3 [9] [%]	cell viability, HepG2 [7] [%]	cell viability, U2OS [10] [%]	cell viability, Vero E6 [8] [%]	morphology score, [12]
1 nM	–	–	92.7	103	89.1	94	95.4	–
10 nM	–	–	92.8	103	101	97.6	99.2	–
100 nM	–	–	100	99.3	107	91.7	96.5	–
0.3 µM	107	104	–	–	–	–	–	0.18
1000 nM	–	–	94.4	94.4	102	98.1	97.1	–
3 µM	85	109	–	–	–	–	–	0.36
10 µM	63	118	–	–	–	–	–	0.87
10000 nM	–	–	97.8	104	102	99	106	–
30 µM	33	115	–	–	–	–	–	0.66

drug-induced phospholipidosis [%], A549-ACE2 [19]
Conditions	0.3 µM	0.833333 µM	3.33333 µM	6.66667 µM	10 µM	30 µM
24 h	-1.12	0.49	3.57	9.5	15.9	81.8
48 h	-0.88	-2.35	0.06	1.85	8.12	104
72 h	-1.12	-4.89	-3.06	1.99	5.24	111

CCN1CCC(n2cc(CNc3cc(Cl)c4ncc(C#N)c(Nc5ccc(F)c(Cl)c5)c4c3)nn2)CC1 [cot-inhibitor-2]
Conditions	drug sensitivity score	relative viability EC50 [µM]
Caco-2 [5]	3.7	–
Caco-2 [17]	–	2.31
Calu-3 [3]	0.3	–
Calu-3 [15]	–	> 10
HepG2 [1]	3	–
HepG2 [13]	–	3.19
U2OS [4]	2.7	–
Vero E6 [2]	0.5	–
Vero E6 [14]	–	> 10

Conditions	SARS-CoV-2 infection rate, [6] [%]	cell count, [18] [%]	cell viability, Caco-2 [11] [%]	cell viability, Calu-3 [9] [%]	cell viability, HepG2 [7] [%]	cell viability, U2OS [10] [%]	cell viability, Vero E6 [8] [%]	morphology score, [12]
1 nM	–	–	105	110	102	102	95.7	–
10 nM	–	–	99.9	92	109	96.4	101	–
100 nM	–	–	93.3	111	91.3	97.4	101	–
0.3 µM	93	102	–	–	–	–	–	0.17
1000 nM	–	–	94.6	96.6	100	93.2	99.8	–
3 µM	47	112	–	–	–	–	–	0.77
10 µM	26	66	–	–	–	–	–	0.43
10000 nM	–	–	47.4	87	43.9	66	81.6	–

drug-induced phospholipidosis [%], A549-ACE2 [19]
Conditions	0.3 µM	0.833333 µM	3.33333 µM	6.66667 µM
24 h	-0.44	-4.12	-0.13	29.3
48 h	-2.64	-3.78	2.2	–
72 h	1.59	-0.868	0.286	–

CCN(CC)CCCC(C)Nc1c2ccc(Cl)cc2nc2ccc(OC)cc12 (stereo unspecified) [mepacrine]
Conditions	drug sensitivity score
Calu-3 [3]	5.7
HepG2 [1]	8.9
U2OS [4]	4
Vero E6 [2]	7.2

Conditions	morphology score, 0.1 µM	morphology score, 0.3 µM	morphology score, 1 µM	morphology score, 3 µM	phospholipidosis EC50, 24 h [µM]	phospholipidosis EC50, 48 h [µM]	phospholipidosis EC50, 72 h [µM]
A549-ACE2 [20]	–	–	–	–	15.8	5.62	3
[12]	0.52	0.52	0.63	0.79	–	–	–

COc1c(OCCCN2CCOCC2)ccc2c1N=C(NC(=O)c1cnc(N)nc1)N1CCN=C21 [copanlisib]
Conditions	drug sensitivity score	relative viability EC50 [µM]
Caco-2 [5]	5.7	–
Caco-2 [17]	–	1.73
Calu-3 [3]	6.8	–
Calu-3 [15]	–	1.26
HepG2 [1]	6	–
U2OS [4]	2	–
Vero E6 [2]	2.9	–

Conditions	SARS-CoV-2 infection rate, [6] [%]	cell count, [18] [%]	cell viability, Caco-2 [11] [%]	cell viability, Calu-3 [9] [%]	cell viability, HepG2 [7] [%]	cell viability, U2OS [10] [%]	cell viability, Vero E6 [8] [%]	morphology score, [12]
1 nM	–	–	99.2	102	98.5	101	98.8	–
10 nM	–	–	98.7	93.1	109	96.2	105	–
0.1 µM	101	101	–	–	–	–	–	0.23
100 nM	–	–	94.6	95.4	101	98.2	96	–
0.3 µM	97	100	–	–	–	–	–	0.09
1 µM	90	98	–	–	–	–	–	0.35
1000 nM	–	–	86.9	73.4	71	96.9	89.8	–
3 µM	92	83	–	–	–	–	–	0.32
10000 nM	–	–	34.9	32.9	51.9	67.5	65.1	–

drug-induced phospholipidosis [%], A549-ACE2 [19]
Conditions	0.3 µM	0.833333 µM	3.33333 µM	6.66667 µM	10 µM	30 µM
24 h	-3.17	-4.37	0.15	5.67	10.8	56.5
48 h	-1.4	-3.62	0.68	3.97	5.69	–
72 h	-0.924	-3.86	0.214	2.05	–	–

CNC(=O)c1ccccc1Sc1ccc2c(/C=C/c3ccccn3)n[nH]c2c1 [axitinib]
Conditions	drug sensitivity score	relative viability EC50 [µM]
Caco-2 [5]	1.5	–
Calu-3 [3]	1.7	–
Calu-3 [15]	–	> 10
HepG2 [1]	2.3	–
U2OS [4]	0.8	–
Vero E6 [2]	0	–
Vero E6 [14]	–	> 10

Conditions	SARS-CoV-2 infection rate, [6] [%]	cell count, [18] [%]	cell viability, Caco-2 [11] [%]	cell viability, Calu-3 [9] [%]	cell viability, HepG2 [7] [%]	cell viability, U2OS [10] [%]	cell viability, Vero E6 [8] [%]	morphology score, [12]
1 nM	–	–	97.2	108	111	102	114	–
10 nM	–	–	108	102	97.7	104	106	–
100 nM	–	–	92	93.6	108	103	108	–
0.3 µM	92	105	–	–	–	–	–	0.34
1000 nM	–	–	97.8	86.7	92.2	105	101	–
3 µM	98	75	–	–	–	–	–	0.32
10 µM	96	77	–	–	–	–	–	0.35
10000 nM	–	–	72.5	81	71.8	74	94.2	–
30 µM	91	68	–	–	–	–	–	0.49

drug-induced phospholipidosis [%], A549-ACE2 [19]
Conditions	0.3 µM	0.833333 µM	3.33333 µM	6.66667 µM	10 µM	30 µM
24 h	2.86	4.48	16.8	10.3	7.44	17.1
48 h	1.43	3.96	7.83	7.9	8.63	15.9
72 h	4.56	4.58	–	–	–	–
